Patent publication US20130203709A1, “ACYLSULFONAMIDES AND PROCESSES FOR PRODUCING THE SAME” (priority 2010, published 2013)
Read-outs that look alike come from different tables or passages of the source.

Key:
Mcl-1 = Mcl-1 (Homo sapiens, UniProt Q07820); assay: fluorescence polarization (FP) assay, disruption of the Mcl-1/BH3 interaction; assay type: binding; conditions: for inhibition at 100 µM: read-out: % Inhibition Mcl-1
Bcl-XL = Bcl-XL (Homo sapiens, UniProt Q07817); assay: fluorescence polarization (FP) assay, disruption of the Bcl-XL/BH3 interaction; assay type: binding; conditions: for inhibition at 100 µM: read-out: % Inhibition Bcl-XL; for inhibition at 50 µM: 50 μM acylsulfonamide, disruption of Bcl-XL/BH3 interaction in FP assay, read-out: Percentage Inhibition at 50 μM acylsulfonamide concentrations
Bcl-XL, sequence (Q07817 whole entry, the tested form may be a part): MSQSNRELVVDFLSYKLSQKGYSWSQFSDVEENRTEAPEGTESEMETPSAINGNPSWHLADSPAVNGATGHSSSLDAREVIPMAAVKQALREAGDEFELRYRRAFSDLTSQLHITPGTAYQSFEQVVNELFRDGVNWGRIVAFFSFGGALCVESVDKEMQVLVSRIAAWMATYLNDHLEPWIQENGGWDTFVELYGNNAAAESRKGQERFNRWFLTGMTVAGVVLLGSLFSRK

[1] = reactive fragments (SZ, TA), 100 μM per FIG. 22 legend, FP assay

Mcl-1, sequence (Q07820 whole entry): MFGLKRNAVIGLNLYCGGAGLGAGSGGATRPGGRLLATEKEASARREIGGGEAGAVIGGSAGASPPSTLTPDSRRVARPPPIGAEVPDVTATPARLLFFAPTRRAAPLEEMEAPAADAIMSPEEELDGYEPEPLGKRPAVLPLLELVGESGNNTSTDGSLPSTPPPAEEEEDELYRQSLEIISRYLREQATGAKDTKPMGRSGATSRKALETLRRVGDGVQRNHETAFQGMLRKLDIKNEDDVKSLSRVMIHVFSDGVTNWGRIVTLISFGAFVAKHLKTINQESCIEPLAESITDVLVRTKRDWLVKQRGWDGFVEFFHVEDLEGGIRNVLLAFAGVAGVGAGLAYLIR

Row | SMILES | inhibition at 100 µM (Mcl-1; [1]) [%] | inhibition at 100 µM (Bcl-XL; [1]) [%] | inhibition at 50 µM (Bcl-XL) [%] | also measured
1 | O=C(NS(=O)(=O)c1ccc(CN(CSc2ccccc2)Cc2ccc3c(c2)OCO3)cc1)c1ccc(OC(F)(F)F)cc1 [SZ31TA8] | – | – | – | selectivity index (Mcl-1; calculated, Mcl-1 over Bcl-XL): 19
2 | Cc1nc(-c2ccccc2)sc1C(=O)NS(=O)(=O)c1ccc(CN(C)CCc2ccccc2)cc1 [SZ2TA3] | – | – | 7 | –
3 | [N-]=[N+]=NS(=O)(=O)c1ccc(CN(CCSc2ccccc2)Cc2ccc(S(=O)(=O)NC(=O)c3ccccc3)cc2)cc1 [SZ9TA1] | – | – | 80 | –
4 | [N-]=[N+]=NS(=O)(=O)c1ccc(CN(CCSc2ccccc2)Cc2ccc(S(=O)(=O)N=[N+]=[N-])cc2)cc1 [SZ9] | – | – | – | inhibition at 100 µM (Mcl-1): 13 ± 1.4%; inhibition at 100 µM (Bcl-XL): 4.7 ± 4%
5 | [N-]=[N+]=NS(=O)(=O)c1ccc(COc2ccccc2[N+](=O)[O-])cc1 [SZ13] | – | – | – | % Inhibition Mcl-1 (Mcl-1; [1]): <1%; % Inhibition Bcl-XL (Bcl-XL; [1]): 3.8 ± 4.1%
6 | [N-]=[N+]=NS(=O)(=O)c1ccc(-c2ccc(C(F)(F)F)cc2)cc1 [SZ16B] | 1.3 ± 2.4 | 1.1 ± 1.2 | – | –
7 | [N-]=[N+]=NS(=O)(=O)c1ccc(Cl)cc1 [SZ18] | – | – | – | % Inhibition Mcl-1 (Mcl-1; [1]): <1%; % Inhibition Bcl-XL (Bcl-XL; [1]): <1%
8 | Cc1ccccc1S(=O)(=O)N=[N+]=[N-] [SZ20] | – | – | – | % Inhibition Mcl-1 (Mcl-1; [1]): 6.2 ± 2.1%; % Inhibition Bcl-XL (Bcl-XL; [1]): 1.4 ± 1.6%
9 | COc1ccc(S(=O)(=O)N=[N+]=[N-])cc1 [SZ19] | – | – | – | % Inhibition Mcl-1 (Mcl-1; [1]): <1%; % Inhibition Bcl-XL (Bcl-XL; [1]): <1%
10 | Cc1ccc(S(=O)(=O)NC(=O)c2ccc(N3CCC(C)(C)CC3)cc2)cc1 [SZ5TA2] | – | – | 28 | –
11 | CN(CCc1ccccc1)Cc1ccc(S(=O)(=O)NC(=O)c2ccc(N3CCC(C)(C)CC3)cc2)cc1 [SZ2TA2] | – | – | 9 | –
12 | CC1(C)CCN(c2ccc(C(=O)NS(=O)(=O)c3ccc(NCCSc4ccccc4)c([N+](=O)[O-])c3)cc2)CC1 [SZ4TA2] | – | – | 100 | IC50 against Bcl-XL (in words) (Bcl-XL): in the nM range
13 | [N-]=[N+]=NS(=O)(=O)CCN1CCCC2CCCCC21 (stereo not shown) [SZ22] | 1.2 ± 1.2 | < 1 | – | –
14 | [N-]=[N+]=NS(=O)(=O)c1ccc(NCCSc2ccccc2)c([N+](=O)[O-])c1 [SZ4] | – | – | – | inhibition at 100 µM (Mcl-1): 23.4 ± 14.9%; inhibition at 100 µM (Bcl-XL): < 1%
15 | Cc1ccc(-c2ccc(C(=O)O)cc2)cc1 [SK_2_170] | 6.8 ± 1.3 | 7 ± 13 | – | –
16 | CC1(C)CCN(c2ccc(C(=O)NS(=O)(=O)c3ccc(CN(CSc4ccccc4)Cc4ccc5c(c4)OCO5)cc3)cc2)CC1 [SZ31TA2] | – | – | – | IC50 (Mcl-1; FP assay, read-out: IC50 against Mcl-1): 3.3 µM; ligand efficiency (Mcl-1; against Mcl-1): 0.159
17 | COc1cc(OC)cc(C(=O)NS(=O)(=O)c2ccc(CN(CCSc3ccccc3)Cc3ccc(S(=O)(=O)N=[N+]=[N-])cc3)cc2)c1 [SZ9TA5] | – | – | 60 | –

Row | SMILES | inhibition at 100 µM (Mcl-1; [1]) [%] | inhibition at 100 µM (Bcl-XL; [1]) [%] | inhibition at 50 µM (Bcl-XL) [%] | also measured
18 | CN(CCc1ccccc1)Cc1ccc(S(=O)(=O)NC(=O)c2ccccc2)cc1 [SZ2TA1] | – | – | 2 | –
19 | [N-]=[N+]=NS(=O)(=O)c1ccc(NCc2ccc(Br)cc2)cc1 [SZ29] | – | – | – | inhibition at 100 µM (Mcl-1): 5.7 ± 4.6%; inhibition at 100 µM (Bcl-XL): < 1%
20 | CC1(C)CCN(c2ccc(C(=O)NS(=O)(=O)c3ccc(CN(CCSc4ccccc4)Cc4ccc(S(=O)(=O)N=[N+]=[N-])cc4)cc3)cc2)CC1 [SZ9TA2] | – | – | 38 | –
21 | Cc1nc(-c2ccccc2)sc1C(=O)NS(=O)(=O)c1ccc(CN(CCSc2ccccc2)Cc2ccc(S(=O)(=O)N=[N+]=[N-])cc2)cc1 [SZ9TA3] | – | – | 22 | –
22 | CC(=O)Nc1ccc(S(=O)(=O)NC(=O)c2ccc(OC(F)(F)F)cc2)cc1 [SZ3TA8] | – | – | 0 | –
23 | Cc1nc(-c2ccccc2)sc1C(=O)NS(=O)(=O)c1ccc(CN2CCN(c3ccccc3)CC2)cc1 [SZ1TA3] | – | – | 6 | –
24 | COc1cc2c(cc1OC)C(c1ccccc1)N(CC(=O)NS(=O)(=O)c1ccc(CN(C)CCc3ccccc3)cc1)CC2 (stereo not shown) [SZ2TA4] | – | – | 25 | –
25 | CC(=O)Nc1ccc(S(=O)(=O)NC(=O)c2ccco2)cc1 [SZ3TA9] | – | – | 0 | –
26 | O=C(NS(=O)(=O)c1ccc(NCCSc2ccccc2)c([N+](=O)[O-])c1)c1ccccc1 [SZ4TA1] | – | – | 14 | –
27 | CC1(C)CCN(c2ccc(C(=O)O)cc2)CC1 [TA2] | 6.8 ± 6.7 | < 1 | – | –
28 | Cc1ccc(S(=O)(=O)NC(=O)c2ccccc2)cc1 [SZ5TA1] | – | – | 29 | –
29 | CC(=O)Nc1ccc(S(=O)(=O)NC(=O)c2cccc3ccccc23)cc1 [SZ3TA7] | – | – | 0 | –
30 | CC1(C)CCN(c2ccc(C(=O)NS(=O)(=O)c3ccc4ccc(S(=O)(=O)NCCSc5ccccc5)cc4c3)cc2)CC1 [SZ7TA2] | – | – | 76 | –
31 | O=C(NS(=O)(=O)c1ccc(CN(CCSc2ccccc2)Cc2c(F)cccc2Cl)cc1)c1ccccc1 [SZ15TA1] | – | – | – | fold less active than SZ31TA2 (Mcl-1; Mcl-1 PPIM activity relative to SZ31TA2): approximately 10 fold
32 | CC(=O)Nc1ccc(S(=O)(=O)NC(=O)c2cccc([N+](=O)[O-])c2)cc1 [SZ3TA6] | – | – | 0 | –
33 | CC(=O)Nc1ccc(S(=O)(=O)NC(=O)c2ccccc2)cc1 [SZ3TA1] | – | – | 0 | –
34 | Cc1ccc(S(=O)(=O)N=[N+]=[N-])cc1 [SZ5] | – | – | – | % Inhibition Mcl-1 (Mcl-1; [1]): 1.2 ± 7.9%; % Inhibition Bcl-XL (Bcl-XL; [1]): 2.3 ± 1.1%

More lines, main results first:

Row | inhibition at 100 µM (Mcl-1; [1]) [%] | inhibition at 100 µM (Bcl-XL; [1]) [%] | inhibition at 50 µM (Bcl-XL) [%] | SMILES | also measured
35 | 3.6 ± 5.2 | 3.3 ± 2.1 | – | [N-]=[N+]=NS(=O)(=O)CCN1CCc2ccccc2C1 [SZ23] | –
36 | < 1 | < 1 | – | [N-]=[N+]=NS(=O)(=O)CCN1CCN(Cc2ccc3c(c2)OCO3)CC1 [SZ25] | –
37 | 2.1 ± 3.3 | 7.9 ± 5.8 | – | [N-]=[N+]=NS(=O)(=O)c1ccc(COc2ccc3c(=O)cc(-c4ccccc4)oc3c2)cc1 [SZ14] | –
38 | 3.6 ± 12.7 | 4 ± 1.2 | – | O=C(O)c1ccc(OC(F)(F)F)cc1 [TA8] | –
39 | 25.1 ± 0.7 | 10 ± 0.9 | – | [N-]=[N+]=NS(=O)(=O)c1ccc(CN(CCSc2ccccc2)Cc2c(F)cccc2Cl)cc1 [SZ15] | –
40 | 13.9 ± 0.05 | 4 ± 0.1 | – | COc1cc2c(cc1OC)C(c1ccccc1)N(CCS(=O)(=O)N=[N+]=[N-])CC2 (stereo not shown) [SZ27] | –
41 | < 1 | 2 ± 1.7 | – | O=C(O)c1ccno1 [TA10] | –
42 | < 1 | < 1 | – | [N-]=[N+]=NS(=O)(=O)c1ccc(CNc2cccc([N+](=O)[O-])c2)cc1 [SZ12] | –
43 | < 1 | 2.2 ± 0.7 | – | CC(C)(C)c1ccc(-c2ccc(S(=O)(=O)N=[N+]=[N-])cc2)cc1 [SZ8] | –
44 | < 1 | 6.7 ± 4.5 | – | CC(=O)Nc1ccc(S(=O)(=O)N=[N+]=[N-])cc1 [SZ3] | –
45 | 2.7 ± 7.5 | < 1 | – | [N-]=[N+]=NS(=O)(=O)CCN1CCC(Cc2ccccc2)CC1 [SZ24] | –
46 | 1.4 ± 3.6 | < 1 | – | Cc1nc(-c2ccccc2)sc1C(=O)O [TA3] | –
47 | 1.3 ± 13.4 | < 1 | – | COc1cc(OC)cc(C(=O)O)c1 [TA5] | –
48 | 1.5 ± 0.7 | < 1 | – | COc1cc2c(cc1OC)C(c1ccccc1)N(CC(=O)O)CC2 (stereo not shown) [TA4] | –
49 | < 1 | < 1 | – | CCN(CC)c1ccc(CNc2ccc(S(=O)(=O)N=[N+]=[N-])cc2)cc1 [SZ30] | –
50 | < 1 | < 1 | – | [N-]=[N+]=NS(=O)(=O)CCN(CCSc1ccccc1)Cc1ccc2c(c1)OCO2 [SZ28] | –
51 | 3.4 ± 0.2 | 4.6 ± 4.7 | – | [N-]=[N+]=NS(=O)(=O)c1ccc2ccc(S(=O)(=O)NCCSc3ccccc3)cc2c1 [SZ6] | –
52 | < 1 | 1.9 ± 3.8 | – | [N-]=[N+]=NS(=O)(=O)c1ccc(CN(CCSc2ccccc2)Cc2ccc(S(N)(=O)=O)cc2)cc1 [SZ10] | –
53 | < 1 | < 1 | – | [N-]=[N+]=NS(=O)(=O)c1ccc(CN(CCSc2ccccc2)Cc2ccc3c(c2)OCO3)cc1 [SZ31] | –
54 | 2.4 ± 6.8 | < 1 | – | O=C(O)c1cccc2ccccc12 [TA7] | –
55 | 4 ± 1.6 | 2.6 ± 7.8 | – | COc1cccc(CN(CCSc2ccccc2)Cc2ccc(S(=O)(=O)N=[N+]=[N-])cc2)c1 [SZ17] | –
56 | < 1 | < 1 | – | COc1cc2c(cc1OC)C(c1ccccc1)N(Cc1ccc(S(=O)(=O)N=[N+]=[N-])cc1)CC2 (stereo not shown) [SZ11] | –
57 | < 1 | < 1 | – | O=C(O)c1cccc([N+](=O)[O-])c1 [TA6] | –
58 | 49.3 ± 3.3 | 1.1 | – | CN(C)c1cccc2c(S(=O)(=O)N=[N+]=[N-])cccc12 [SZ21] | –
59 | < 1 | < 1 | – | [N-]=[N+]=NS(=O)(=O)CCN(Cc1ccccc1)Cc1ccccc1 [SZ26] | –
60 | < 1 | < 1 | – | O=C(O)c1ccco1 [TA9] | –
